{"source": "patent US10562912B2", "about": "(C&C Research Laboratories, priority 2013, dated 2020)", "assay_type_in_all_cases": "cell-based", "key": {"LNCaP": {"test_system": "LNCaP", "test": "Cell growth inhibition assay, prostate cancer cell line LNCaP (medium with 10 ng/mL IL-6)", "conditions": "Homo sapiens, medium supplemented with 10 ng/mL of IL-6, 10,000 cells/well"}, "STAT3": {"target": "T1, STAT3 (Homo sapiens, UniProt P40763)", "T1 construct": "plasmid pSTAT3-TA-luc), which contains a stably operating STAT3 promoter; endogenous in cells", "T1 sequence (P40763 whole entry)": "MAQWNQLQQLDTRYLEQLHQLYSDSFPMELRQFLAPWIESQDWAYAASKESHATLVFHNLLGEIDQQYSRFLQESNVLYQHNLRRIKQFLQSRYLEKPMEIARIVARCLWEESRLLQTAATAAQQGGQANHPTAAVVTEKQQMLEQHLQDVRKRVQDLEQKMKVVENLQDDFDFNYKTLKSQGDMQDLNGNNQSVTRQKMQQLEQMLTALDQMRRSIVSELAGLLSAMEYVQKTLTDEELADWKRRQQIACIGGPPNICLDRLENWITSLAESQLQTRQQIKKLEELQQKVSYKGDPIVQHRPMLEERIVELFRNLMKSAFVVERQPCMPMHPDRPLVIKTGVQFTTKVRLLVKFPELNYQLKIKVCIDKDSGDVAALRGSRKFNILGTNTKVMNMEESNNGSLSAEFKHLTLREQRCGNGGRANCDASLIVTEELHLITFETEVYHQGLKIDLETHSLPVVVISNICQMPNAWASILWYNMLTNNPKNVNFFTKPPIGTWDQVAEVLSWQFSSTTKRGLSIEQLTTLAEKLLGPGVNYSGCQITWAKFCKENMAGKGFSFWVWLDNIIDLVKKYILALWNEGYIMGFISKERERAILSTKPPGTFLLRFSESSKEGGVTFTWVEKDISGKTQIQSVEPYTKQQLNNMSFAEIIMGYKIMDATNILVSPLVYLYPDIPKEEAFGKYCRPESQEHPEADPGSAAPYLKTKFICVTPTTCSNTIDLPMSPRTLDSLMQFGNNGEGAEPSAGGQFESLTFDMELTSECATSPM", "test": "STAT3 reporter gene assay (luciferase), LNCaP stable cell line (pSTAT3-TA-luc), IL-6 stimulation", "method_in_brief": "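Cytotoxicity was run on a duplicate plate with CellTiter-Glo, while the other plate gave luciferase read-outs from lysed LNCaP pSTAT3-TA-luc reporter cells. Cells were treated with graded compound concentrations plus IL-6 (10 ng/mL final) for 24–48 h in 3% DCC-FBS medium. Unstimulated and stimulated wells served as negative and positive controls.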"}, "MDA-MB-231": {"test_system": "MDA-MB-231", "test": "Cell growth inhibition assay, breast cancer cell line MDA-MB-231", "conditions": "Homo sapiens; MDA-MB-231 breast cancer cell line, 5,000 cells/well"}, "DU-145": {"test_system": "DU-145", "test": "Cell growth inhibition assay, prostate cancer cell line DU-145", "conditions": "Homo sapiens, DU-145 prostate cancer cell line", "method_in_brief": "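Luminescent CellTiter-Glo readout of viable cells after 72–96 h compound exposure (37° C., 5% CO2). Seeding: 3,000 cells/well for DU-145 and HCT116, 5,000 cells/well for SW626. Controls were medium without cells and 0.1% DMSO vehicle.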"}}, "data": [{"compound": "COc1cc(OC(F)(F)F)cc(C(C)(C)c2cccc(NC(=O)c3cc4cc(NS(C)(=O)=O)ccc4s3)c2)c1", "note": "[Example 33, N-(3-(2-(3-methoxy-5-(trifluoromethoxy)phenyl)propan-2-yl)phenyl)-5-(methylsulfonamido)benzo[b]thiophene-2-carboxamide]", "values": [{"measurement": "IC50", "setting": "LNCaP", "result": 0.15, "unit": "µM"}, {"measurement": "IC50", "setting": "STAT3", "result": 0.035, "unit": "µM"}, {"measurement": "IC50", "setting": "MDA-MB-231", "result": 0.003, "unit": "µM"}, {"measurement": "IC50", "setting": "DU-145", "result": 0.037, "unit": "µM"}]}, {"compound": "CC(C)(C)OC(=O)N1CCN(Cc2cccc(C(C)(C)c3cc(Br)cc(NC(=O)c4cc5ccc(NS(C)(=O)=O)cc5[nH]4)c3)c2)CC1", "note": "[Example 117, tert-butyl 4-(3-(2-(3-bromo-5-(6-(methylsulfonamido)-1H-indole-2-carboxamido)phenyl)propan-2-yl)benzyl)piperazine-1-carboxylate]", "values": [{"measurement": "IC50", "setting": "LNCaP", "result": 2.6, "unit": "µM"}, {"measurement": "IC50", "setting": "STAT3", "result": 0.23, "unit": "µM"}, {"measurement": "IC50", "setting": "MDA-MB-231", "result": 2.2, "unit": "µM"}, {"measurement": "IC50", "setting": "DU-145", "result": 1.2, "unit": "µM"}]}, {"compound": "CC(C)(c1cc(Br)cc(NC(=O)c2cc3cc(NS(C)(=O)=O)ccc3s2)c1)c1cccc(OCC(N)=O)c1", "note": "[Example 43, N-(3-(2-(3-(2-amino-2-oxoethoxy)phenyl)propan-2-yl)-5-bromophenyl)-5-(methylsulfonamido)benzo[b]thiophene-2-carboxamide]", "values": [{"measurement": "IC50", "setting": "LNCaP", "result": 5.8, "unit": "µM"}, {"measurement": "IC50", "setting": "STAT3", "result": 2.7, "unit": "µM"}, {"measurement": "IC50", "setting": "MDA-MB-231", "result": 3.6, "unit": "µM"}, {"measurement": "IC50", "setting": "DU-145", "result": 4.9, "unit": "µM"}]}, {"compound": "COc1cc2cc(C(=O)Nc3cc(Br)cc(C(C)(C)c4ccc(F)cc4)c3)[nH]c2cc1NS(C)(=O)=O", "note": "[Example 19, N-(3-bromo-5-(2-(4-fluorophenyl)propan-2-yl)phenyl)-5-methoxy-6-(methylsulfonamido)-1H-indole-2-carboxamide]", "values": [{"measurement": "IC50", "setting": "LNCaP", "result": 0.52, "unit": "µM"}, {"measurement": "IC50", "setting": "STAT3", "result": 0.12, "unit": "µM"}, {"measurement": "IC50", "setting": "MDA-MB-231", "result": 0.088, "unit": "µM"}, {"measurement": "IC50", "setting": "DU-145", "result": 0.15, "unit": "µM"}]}, {"compound": "CC(C)(c1ccc(F)cc1)c1cc(Cl)cc(NC(=O)c2cc3ccc(NS(C)(=O)=O)cc3[nH]2)c1", "note": "[Example 21, N-(3-chloro-5-(2-(4-fluorophenyl)propan-2-yl)phenyl)-6-(methylsulfonamido)-1H-indole-2-carboxamide]", "values": [{"measurement": "IC50", "setting": "LNCaP", "result": 0.9, "unit": "µM"}, {"measurement": "IC50", "setting": "STAT3", "result": 0.22, "unit": "µM"}, {"measurement": "IC50", "setting": "MDA-MB-231", "result": 0.054, "unit": "µM"}, {"measurement": "IC50", "setting": "DU-145", "result": 0.19, "unit": "µM"}]}, {"compound": "CN1CCN(Cc2cccc(C(C)(C)c3cc(Br)cc(NC(=O)c4cc5cc(NS(C)(=O)=O)ccc5s4)c3)c2)CC1", "note": "[Example 115, N-(3-bromo-5-(2-(3-((4-methylpiperazin-1-yl)methyl)phenyl)propan-2-yl)phenyl)-5-(methylsulfonamido)benzo[b]thiophene-2-carboxamide]", "values": [{"measurement": "IC50", "setting": "LNCaP", "result": 5.6, "unit": "µM"}, {"measurement": "IC50", "setting": "STAT3", "result": 2.5, "unit": "µM"}, {"measurement": "IC50", "setting": "MDA-MB-231", "result": 1.5, "unit": "µM"}, {"measurement": "IC50", "setting": "DU-145", "result": 1.7, "unit": "µM"}]}, {"compound": "CCC(CC)(c1cc(NC(=O)c2cc3cc(NS(C)(=O)=O)ccc3s2)cc(OC)c1)c1cc(OC)cc(OC(F)(F)F)c1", "note": "[Example 54, N-(3-methoxy-5-(3-(3-methoxy-5-(trifluoromethoxy)phenyl)pentan-3-yl)phenyl)-5-(methylsulfonamido)benzo[b]thiophene-2-carboxamide]", "values": [{"measurement": "IC50", "setting": "LNCaP", "result": 0.17, "unit": "µM"}, {"measurement": "IC50", "setting": "STAT3", "result": 0.048, "unit": "µM"}, {"measurement": "IC50", "setting": "MDA-MB-231", "result": 0.036, "unit": "µM"}, {"measurement": "IC50", "setting": "DU-145", "result": 0.046, "unit": "µM"}]}, {"compound": "CC(C)(c1ccc(F)cc1)c1cc(Br)cc(NC(=O)c2cc3cc(NS(C)(=O)=O)ccc3s2)c1", "note": "[Example 32, N-(3-bromo-5-(2-(4-fluorophenyl)propan-2-yl)phenyl)-5-(methylsulfonamido)benzo[b]thiophene-2-carboxamide]", "values": [{"measurement": "IC50", "setting": "LNCaP", "result": 0.15, "unit": "µM"}, {"measurement": "IC50", "setting": "STAT3", "result": 0.034, "unit": "µM"}, {"measurement": "IC50", "setting": "MDA-MB-231", "result": 0.021, "unit": "µM"}, {"measurement": "IC50", "setting": "DU-145", "result": 0.044, "unit": "µM"}]}, {"compound": "CS(=O)(=O)Nc1ccc2sc(C(=O)Nc3cc(Br)cc(C4(c5ccc(F)cc5F)CC4)c3)cc2c1", "note": "[Example 426, N-(3-bromo-5-(1-(2,4-difluorophenyl)cyclopropyl)phenyl)-5-(methylsulfonamido)benzo[b]thiophene-2-carboxamide]", "values": [{"measurement": "IC50", "setting": "LNCaP", "result": 0.3, "unit": "µM"}, {"measurement": "IC50", "setting": "STAT3", "result": 0.082, "unit": "µM"}, {"measurement": "IC50", "setting": "MDA-MB-231", "result": 0.074, "unit": "µM"}, {"measurement": "IC50", "setting": "DU-145", "result": 0.13, "unit": "µM"}]}]}
